Here are results for 7 compounds from patent US8501959B2, “Cycloalkane[B]indole antagonists of prostaglandin D2 receptors” (Panmira Pharmaceuticals, LLC, priority 2008, dated 2013).

One assay has as its target T1, human DP2 receptor (Homo sapiens, UniProt Q9Y5Y4).
T1 construct: expressed in transfected cells
T1 sequence (Q9Y5Y4 1-395): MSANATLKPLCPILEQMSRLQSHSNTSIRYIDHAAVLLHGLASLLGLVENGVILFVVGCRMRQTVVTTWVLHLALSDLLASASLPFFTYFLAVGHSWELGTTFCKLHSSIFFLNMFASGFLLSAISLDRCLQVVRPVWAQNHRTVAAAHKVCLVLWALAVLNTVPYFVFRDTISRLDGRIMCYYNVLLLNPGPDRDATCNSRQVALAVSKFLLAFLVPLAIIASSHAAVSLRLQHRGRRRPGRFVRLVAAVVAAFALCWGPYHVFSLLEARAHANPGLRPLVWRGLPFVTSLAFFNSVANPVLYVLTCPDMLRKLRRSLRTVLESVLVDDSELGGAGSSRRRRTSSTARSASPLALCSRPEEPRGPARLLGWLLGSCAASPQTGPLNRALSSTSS
Description: DP2/CRTH2 binding assay (radioligand [3H]PGD2). As to conditions: [3H]PGD2 binding, membranes of HEK293 cells expressing recombinant human DP2; read-out: hDP2. As to the method: The ability of a compound to bind to the human DP2 receptor is assessed via a radioligand binding assay using [^3H]PGD2. HEK293 cells stably expressing recombinant human DP2 are resuspended in 10 mM Hepes, 7.4 containing 1 mM DTT, lysed and centrifuged at 75,000×g to pellet the membranes. The membranes are resuspended in 10 mM Hepes, 7.4 containing 1 mM DTT and 10% glycerol to approximately 5 mg protein/ml. Membranes (2-10 μg protein/well) are incubated in 96-well plates with 1 nM [^3H]PGD2 and test compound in Assay Buffer (50 mM Hepes, 10 mM MnCl2, 1 mM EDTA, plus or minus 0.2% human serum albumin, pH 7.4) for 60 minutes at room temperature. The reactions are terminated by rapid filtration through Whatman GF/C glass fibre filter plates. The filter plates were pre-soaked in 0.33% polythylenimine for 30 minutes at room temperature then washed in Wash Buffer (50 mM Hepes, 0.5 M NaCl pH 7.4) prior to harvesting. After harvesting, the filter plates are washed 3 times with 1 ml cold Wash Buffer then dried. Scintillant is then added to the plates and the radioactivity retained on the filters is determined on a Packard TopCount (Perkin Elmer). Specific binding is determined as total radioactive binding minus non-specific binding in the presence of 10 μM PGD2. IC50s were determined using GraphPad prism analysis of drug titration curves.

The target in the next assay is T2, human DP1 receptor (Homo sapiens, UniProt Q13258).
T2 construct: tissue Biological Specialty Corporation; host or cells: human platelets, membrane preparation
T2 sequence (Q13258 1-359): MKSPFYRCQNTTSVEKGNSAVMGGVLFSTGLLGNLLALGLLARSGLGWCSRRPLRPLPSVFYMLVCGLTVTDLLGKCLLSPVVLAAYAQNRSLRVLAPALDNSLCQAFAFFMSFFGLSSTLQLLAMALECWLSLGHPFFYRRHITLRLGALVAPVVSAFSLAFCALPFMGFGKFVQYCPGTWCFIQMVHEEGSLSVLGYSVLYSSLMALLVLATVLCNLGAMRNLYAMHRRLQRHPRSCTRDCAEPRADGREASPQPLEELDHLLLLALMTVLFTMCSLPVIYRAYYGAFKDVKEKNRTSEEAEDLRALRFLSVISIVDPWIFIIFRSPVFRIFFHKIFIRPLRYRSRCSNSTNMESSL
The experiment in a line: DP1 binding assay (radioligand [3H]BWA868C). Conditions: [3H]BWA868C binding, human platelet membranes; read-out: hDP1. On the procedure: The ability of a compound to bind to the human DP1 receptor was evaluated via a radioligand membrane binding assay using the DP1 selective synthetic ligand [^3H]BWA868C. Packed human platelets (Biological Specialty Corporation), were resuspended in 6 volumes of Hepes/HBSS buffer (10 mM Hepes, 1 mM DTT in Hanks Balanced Salt Solution (HBSS), lysed and centrifuged at 75,000×g to pellet the membranes. Membranes were resuspended in Hepes/HBSS buffer to approximately 12 mg protein/ml. Membranes (20 μg protein/well) are incubated in 96-well plates with 2 nM [^3H]BWA868C and test compound in Assay Buffer (50 mM Hepes, 10 mM MnCl2, 1 mM EDTA, plus or minus 0.2% human serum albumin, pH 7.4) for 60 minutes at room temperature. The reactions are terminated by rapid filtration through Whatman GF/C glass fibre filter plates. The filter plates were pre-soaked in 0.33% polethylenimine for 30 minutes at room temperature then washed in Wash Buffer (50 mM Hepes, 0.5 M NaCl pH 7.4) prior to harvesting. After harvesting, the filter plates are washed 3 times with 1 ml cold Wash Buffer then dried. Scintillant is then added to the plates and the radioactivity retained on the filters is determined on a Packard TopCount (Perkin Elmer). Specific binding is determined as total radioactive binding minus non-specific binding in the presence of 10 μM BW A868C. IC50s were determined using GraphPad prism analysis of drug titration curves.

For the compound `O=C(O)CN(C1CCc2c(c3ccccc3n2CC(=O)O)C1)S(=O)(=O)c1ccc(F)cc1` (centres unmarked) [Compound 1-1, {3-[Carboxymethyl-(4-fluoro-benzenesulfonyl)-amino]-1,2,3,4-tetrahydro-carbazol-9-yl}-acetic acid], the IC50 on human DP2 receptor was less than 300 nM; at human DP1 receptor, greater than 1000 nM.
The corresponding values for `CC(C)(O)CCn1c2c(c3ccccc31)CC(N(CC(=O)O)S(=O)(=O)c1ccc(F)cc1)CC2` (centres unmarked) [Compound 1-2, {(4-Fluoro-benzenesulfonyl)-[9-(3-hydroxy-3-methyl-butyl)-2,3,4,9-tetrahydro-1H-carbazol-3-yl]-amino}-acetic acid] are greater than 1000 nM and greater than 1000 nM.
The corresponding values for `CC(C)(O)CN(C1CCc2c(c3ccccc3n2CCC(=O)O)C1)S(=O)(=O)c1ccc(F)cc1` (centres unmarked) [Compound 1-3, 3-{3-[(4-Fluoro-benzenesulfonyl)-(2-hydroxy-2-methyl-propyl)-amino]-1,2,3,4-tetrahydro-carbazol-9-yl}-propionic acid] are greater than 1000 nM and greater than 1000 nM.
As for `CC(C)(O)CCn1c2c(c3ccccc31)CC(N(CC(C)(C)O)S(=O)(=O)c1ccc(F)cc1)CC2` (centres unmarked) [Compound 1-4, 4-FluoroN-[9-(3-hydroxy-3-methyl-butyl)-2,3,4,9-tetrahydro-1H-carbazol-3-yl]-N-(2-hydroxy-2-methyl-propyl)-benzenesulfonamide], the IC50 on human DP2 receptor and on human DP1 receptor was greater than 1000 nM each time.
Consider `NC(=O)CN(C1CCc2c(c3ccccc3n2CCC(=O)O)C1)S(=O)(=O)c1ccc(F)cc1` (centres unmarked) [Compound 1-5, 3-{3-[Carbamoylmethyl-(4-fluoro-benzenesulfonyl)-amino]-1,2,3,4-tetrahydro-carbazol-9-yl}-propionic acid], for which the IC50 on human DP2 receptor and on human DP1 receptor was greater than 1000 nM in each case.
As to `O=C(O)CCn1c2c(c3ccccc31)CC(N(CC(=O)O)S(=O)(=O)c1ccc(F)cc1)CC2` (centres unmarked) [Compound 1-6, 3-{3-[Carboxymethyl-(4-fluoro-benzenesulfonyl)-amino]-1,2,3,4-tetrahydro-carbazol-9-yl}-propionic acid], the IC50 at human DP2 receptor and on human DP1 receptor was greater than 1000 nM throughout.
With `O=C(O)CCn1c2c(c3ccccc31)C[C@H](NS(=O)(=O)c1ccc(F)cc1)CC2` [Ramatroban, reference compound], the IC50 at human DP2 receptor was greater than 300 nM; on human DP1 receptor, greater than 1000 nM.
